Assay results taken from patent publication US20250170073A1, “SYNERGISTIC COMPOSITIONS FOR IMPROVING MINERAL BIOACCESSIBILITY” (priority 2022, published 2025).

Assay: Simulated digestion model, mineral bioaccessibility
Format: in vitro ADME
Details: in the presence of lutein
Description: In vitro simulated gastrointestinal digestion was used for assessing mineral bioaccessibility in presence of the tested compounds.
Mineral bioaccessibility buffer (MBB) was prepared (NaCl; 6.6 mg/mL, MgSO4; 0.12 mg/mL, Glucose; 0.9 mg/mL, L-Ascorbic acid; 0.09 mg/mL, HEPES; 8.6 mg/mL at pH 6.5) with Calcium, Iron and Zinc (tricalcium phosphate; 1314.6 μg/mL, Calcium D-pantothenate; 28.5 μg/mL, Calcium Carbonate; 13.0 μg/mL, Iron Sulphate heptahydrate; 3.8 μg/mL, Iron Chloride; 12.5 μg/mL, Zinc Sulphate heptahydrate; 17.4 μg/mL, Zinc Chloride; 2.2 μg/mL) to achieve a total mineral content (Calcium; 520 μg/mL, Iron; 5.0 μg/mL, Zinc; 5.0 μg/mL), as well as soluble mineral content similar to that of infant formula. […]
The transit of CCP, Lutein, 2-PA and non-digestible Gos/Fos through the gastro-intestinal tract was mimicked using a three-phase dialysis model that was adapted from literature [Venema, 2020]. […] Calcium, Iron and Zinc in the dialysate were analyzed with ICP-OES spectrometry.
The average (n=3) total amount of Calcium, Iron and Zinc measured in the dialysate was considered bioaccessible. […]

CC1=C[C@H](O)CC(C)(C)[C@H]1/C=C/C(C)=C/C=C/C(C)=C/C=C/C=C(C)/C=C/C=C(C)/C=C/C1=C(C)C[C@@H](O)CC1(C)C [lutein]
mineral bioaccessibility: significantly increased
